Data reported in paper PMC10482301 (PLOS Neglected Tropical Diseases, 2023).

Legend:
[1] = target: T1, UDP-glucose 6-dehydrogenase (HsUGDH) (Homo sapiens, UniProt O60701); assay: spectrophotometric assay, helper enzyme inhibited (no numbers shown); assay type: biochemical
T1 construct: gene UGDH; recombinant HsUGDH with N-terminal Strep-tag and four-residue linker
T1 sequence (O60701 1-494): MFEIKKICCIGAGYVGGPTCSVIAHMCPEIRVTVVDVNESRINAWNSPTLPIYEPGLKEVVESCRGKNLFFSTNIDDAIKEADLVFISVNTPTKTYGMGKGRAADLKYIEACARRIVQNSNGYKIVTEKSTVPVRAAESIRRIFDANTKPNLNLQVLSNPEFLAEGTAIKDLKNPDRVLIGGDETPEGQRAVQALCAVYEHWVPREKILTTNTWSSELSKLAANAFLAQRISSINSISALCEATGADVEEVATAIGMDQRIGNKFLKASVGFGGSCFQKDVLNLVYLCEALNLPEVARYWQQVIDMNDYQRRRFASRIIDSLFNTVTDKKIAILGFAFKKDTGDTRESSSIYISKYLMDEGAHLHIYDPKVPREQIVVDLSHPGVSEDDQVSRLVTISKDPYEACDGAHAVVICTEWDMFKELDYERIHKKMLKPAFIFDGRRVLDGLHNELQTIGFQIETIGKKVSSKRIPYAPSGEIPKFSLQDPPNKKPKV

[2] = target: T2, UDP-glucose 4-epimerase (EhGalE) (Entamoeba histolytica, UniProt C4M746); assay: RP-HPLC of UDP-Gal to UDP-Glc conversion by purified recombinant enzyme after […] min preincubation; assay type: biochemical
T2 construct: gene EHI_192050; full-length recombinant EhGalE (XP_650346) with N-terminal Strep-tag and Gly-Gly-Gly-Ser linker
T2 sequence (C4M746 1-341): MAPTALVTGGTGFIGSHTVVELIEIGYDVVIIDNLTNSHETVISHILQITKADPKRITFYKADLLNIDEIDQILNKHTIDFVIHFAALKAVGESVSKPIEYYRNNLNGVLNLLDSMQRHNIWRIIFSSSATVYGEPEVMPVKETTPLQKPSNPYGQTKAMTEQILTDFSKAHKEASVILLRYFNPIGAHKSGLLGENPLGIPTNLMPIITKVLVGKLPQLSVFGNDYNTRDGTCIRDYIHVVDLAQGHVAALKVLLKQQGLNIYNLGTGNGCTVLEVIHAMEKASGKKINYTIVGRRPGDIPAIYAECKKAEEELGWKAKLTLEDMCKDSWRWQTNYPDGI

## CC/C(=C(/CC)c1ccc(O)cc1)c1ccc(O)cc1 [diethylstilbestrol]
[1]
  spectrophotometric assay, helper enzyme inhibited (no numbers shown): the helper enzyme UGDH was inhibited by all three compounds

## O=c1c2ccccc2[se]n1-c1ccccc1 [ebselen]
[1]
  spectrophotometric assay, helper enzyme inhibited (no numbers shown): the helper enzyme UGDH was inhibited by all three compounds
[2]
  IC50: 2190 nM

## C=C(CC)C(=O)c1ccc(OCC(=O)O)c(Cl)c1Cl [ethacrynic acid]
[1]
  spectrophotometric assay, helper enzyme inhibited (no numbers shown): the helper enzyme UGDH was inhibited by all three compounds
